Assay results taken from PMC11576293, “New series of 4,6-diaryl pyrimidines: facile synthesis and antiproliferative activity as dual EGFR/VEGFR-2 inhibitors” (Frontiers in Chemistry, 2024).

Columns and labels:
Test in all cases: NCI-60 single-dose screen
Assay type in all cases: cell-based
MCF7 = details: Homo sapiens, single dose 10 µM, '-' = no inhibition, read-out: % Growth Inhibition
Method: (§1) The National Cancer Institute’s Developmental Therapeutic Program (www.dtp.nci.nih.gov) has tested compounds 9–29 (except compounds 21 and 22) against 60 cancer cell lines from nine types (leukemia, lung, colon, CNS, melanoma, ovarian, renal, prostate, and breast cancer) at a single dose (10 μM) ([El-Sherief et al., 2018]). […] The most sensitive cells included leukemia (SR, K-562, and MOLT-4), lung (NCI-H522, […], and EKVX), breast (MCF-7 and T-47D), colon (HCT-15 and HT-29), and ovarian (NCI/ADR-RES).
(§2) The National Cancer Institute’s Developmental Therapeutic Program (www.dtp.nci.nih.gov) evaluated compounds 9–29 (excluding 21 and 22) against 60 cancer cell lines from nine categories (leukemia, lung, colon, CNS, melanoma, ovarian, renal, prostate, and breast cancer) at a single dose (10 μM) ([El-Sherief et al., 2018]). See Supplementary Material A1 for more details.

PC-3 = details: Homo sapiens, single dose 10 µM, '-' = no inhibition, read-out: % Growth Inhibition
Method: as §1, §2

HCC-2998 = details: Homo sapiens, single dose 10 µM, '-' = no inhibition, read-out: % Growth Inhibition
Method: as §1, §2

KM12 = details: Homo sapiens, single dose 10 µM, '-' = no inhibition, read-out: % Growth Inhibition
Method: as §1, §2

MDA-MB-435 = details: Homo sapiens, single dose 10 µM, '-' = no inhibition, read-out: % Growth Inhibition
Method: as §1, §2

786-0 = details: Homo sapiens, single dose 10 µM, '-' = no inhibition, read-out: % Growth Inhibition
Method: as §1, §2

SR = details: Homo sapiens, single dose 10 µM, '-' = no inhibition, read-out: % Growth Inhibition
Method: as §1, §2

HT29 = details: Homo sapiens, HT-29, single dose 10 µM, '-' = no inhibition, read-out: % Growth Inhibition
Method: as §1, §2

A498 = details: Homo sapiens, single dose 10 µM, '-' = no inhibition, read-out: % Growth Inhibition
Method: as §1, §2

SW-620 = details: Homo sapiens, single dose 10 µM, '-' = no inhibition, read-out: % Growth Inhibition
Method: as §1, §2

RXF 393 = details: Homo sapiens, single dose 10 µM, '-' = no inhibition, read-out: % Growth Inhibition
Method: as §1, §2

SK-MEL-2 = details: Homo sapiens, single dose 10 µM, '-' = no inhibition, read-out: % Growth Inhibition
Method: as §1, §2

MDA-MB-468 = details: Homo sapiens, single dose 10 µM, '-' = no inhibition, read-out: % Growth Inhibition
Method: as §1, §2

IGROV1 = details: Homo sapiens, IGROV-1, single dose 10 µM, '-' = no inhibition, read-out: % Growth Inhibition
Method: as §1, §2

HCT-116 = details: Homo sapiens, single dose 10 µM, '-' = no inhibition, read-out: % Growth Inhibition
Method: as §1, §2

SF-268 = details: Homo sapiens, single dose 10 µM, '-' = no inhibition, read-out: % Growth Inhibition
Method: as §1, §2

OVCAR-5 = details: Homo sapiens, single dose 10 µM, '-' = no inhibition, read-out: % Growth Inhibition
Method: as §1, §2

NCI-H322M = details: Homo sapiens, single dose 10 µM, '-' = no inhibition, read-out: % Growth Inhibition
Method: as §1, §2

CCRF-CEM = details: Homo sapiens, single dose 10 µM, '-' = no inhibition, read-out: % Growth Inhibition
Method: as §1, §2

HS 578T = details: Homo sapiens, single dose 10 µM, '-' = no inhibition, read-out: % Growth Inhibition
Method: as §1, §2

SF-539 = details: Homo sapiens, single dose 10 µM, '-' = no inhibition, read-out: % Growth Inhibition
Method: as §1, §2

ACHN 1 = details: Homo sapiens, single dose 10 µM, '-' = no inhibition, read-out: % Growth Inhibition
Method: as §1, §2

BT-549 = details: Homo sapiens, single dose 10 µM, '-' = no inhibition, read-out: % Growth Inhibition
Method: as §1, §2

UACC-257 = details: Homo sapiens, single dose 10 µM, '-' = no inhibition, read-out: % Growth Inhibition
Method: as §1, §2

T-47D = details: Homo sapiens, T47D, single dose 10 µM, '-' = no inhibition, read-out: % Growth Inhibition
Method: as §1, §2

NCI-H23 = details: Homo sapiens, single dose 10 µM, '-' = no inhibition, read-out: % Growth Inhibition
Method: as §1, §2

RPMI-8226 = details: Homo sapiens, single dose 10 µM, '-' = no inhibition, read-out: % Growth Inhibition
Method: as §1, §2

M14 = details: Homo sapiens, single dose 10 µM, '-' = no inhibition, read-out: % Growth Inhibition
Method: as §1, §2

K-562 = details: Homo sapiens, K562, single dose 10 µM, '-' = no inhibition, read-out: % Growth Inhibition
Method: as §1, §2

SK-MEL-28 = details: Homo sapiens, single dose 10 µM, '-' = no inhibition, read-out: % Growth Inhibition
Method: as §1, §2

HL-60(TB) = details: Homo sapiens, single dose 10 µM, '-' = no inhibition, read-out: % Growth Inhibition
Method: as §1, §2

SK-MEL-5 = details: Homo sapiens, single dose 10 µM, '-' = no inhibition, read-out: % Growth Inhibition
Method: as §1, §2

OVCAR-4 = details: Homo sapiens, single dose 10 µM, '-' = no inhibition, read-out: % Growth Inhibition
Method: as §1, §2

SK-OV-3 = details: Homo sapiens, single dose 10 µM, '-' = no inhibition, read-out: % Growth Inhibition
Method: as §1, §2

TK-10 = details: Homo sapiens, single dose 10 µM, '-' = no inhibition, read-out: % Growth Inhibition
Method: as §1, §2

NCI-H460 = details: Homo sapiens, single dose 10 µM, '-' = no inhibition, read-out: % Growth Inhibition
Method: as §1, §2

SNB-75 = details: Homo sapiens, single dose 10 µM, '-' = no inhibition, read-out: % Growth Inhibition
Method: as §1, §2

COLO 205 = details: Homo sapiens, single dose 10 µM, '-' = no inhibition, read-out: % Growth Inhibition
Method: as §1, §2

HOP-62 = details: Homo sapiens, single dose 10 µM, '-' = no inhibition, read-out: % Growth Inhibition
Method: as §1, §2

EKVX = details: Homo sapiens, single dose 10 µM, '-' = no inhibition, read-out: % Growth Inhibition
Method: as §1, §2

SF-295 = details: Homo sapiens, single dose 10 µM, '-' = no inhibition, read-out: % Growth Inhibition
Method: as §1, §2

U251 = details: Homo sapiens, U-251, single dose 10 µM, '-' = no inhibition, read-out: % Growth Inhibition
Method: as §1, §2

HOP-92 = details: Homo sapiens, single dose 10 µM, '-' = no inhibition, read-out: % Growth Inhibition
Method: as §1, §2

A549/ATCC = details: Homo sapiens, single dose 10 µM, '-' = no inhibition, read-out: % Growth Inhibition
Method: as §1, §2

DU-145 = details: Homo sapiens, single dose 10 µM, '-' = no inhibition, read-out: % Growth Inhibition
Method: as §1, §2

OVCAR-8 = details: Homo sapiens, single dose 10 µM, '-' = no inhibition, read-out: % Growth Inhibition
Method: as §1, §2

SN12C = details: Homo sapiens, single dose 10 µM, '-' = no inhibition, read-out: % Growth Inhibition
Method: as §1, §2

MALME-3M = details: Homo sapiens, single dose 10 µM, '-' = no inhibition, read-out: % Growth Inhibition
Method: as §1, §2

COc1ccc(-c2cc(-c3ccc(Cl)cc3)nc(SC(C)C)n2)cc1 [Compound 12, 4-(4-Chlorophenyl)-2-(isopropylthio)-6-(4-methoxyphenyl)pyrimidine]
inhibition at 10 µM (MCF7): 28.8% | inhibition at 10 µM (PC-3): 2.88% | inhibition at 10 µM (HCC-2998): 1.06% | inhibition at 10 µM (KM12): 9.45% | inhibition at 10 µM (MDA-MB-435): 8.92% | inhibition at 10 µM (786-0): 7.48% | inhibition at 10 µM (SR): 47.1% | inhibition at 10 µM (HT29): 29.2% | inhibition at 10 µM (A498): < 0% | inhibition at 10 µM (SW-620): 5.57% | inhibition at 10 µM (RXF 393): 26.4% | inhibition at 10 µM (SK-MEL-2): 19.5% | inhibition at 10 µM (MDA-MB-468): 35.1% | inhibition at 10 µM (IGROV1): < 0% | inhibition at 10 µM (HCT-116): 19.6% | inhibition at 10 µM (SF-268): < 0% | inhibition at 10 µM (OVCAR-5): < 0% | inhibition at 10 µM (NCI-H322M): 4.22% | inhibition at 10 µM (CCRF-CEM): 24.1% | inhibition at 10 µM (HS 578T): < 0% | inhibition at 10 µM (SF-539): 6.88% | inhibition at 10 µM (ACHN 1): < 0% | inhibition at 10 µM (BT-549): 2.74% | inhibition at 10 µM (UACC-257): 4.1% | inhibition at 10 µM (T-47D): 40.4% | inhibition at 10 µM (NCI-H23): 10.7% | inhibition at 10 µM (RPMI-8226): 26.7% | inhibition at 10 µM (M14): 8.46% | inhibition at 10 µM (K-562): 30.9% | inhibition at 10 µM (SK-MEL-28): < 0% | inhibition at 10 µM (HL-60(TB)): 32.6% | inhibition at 10 µM (SK-MEL-5): 17.9% | inhibition at 10 µM (OVCAR-4): 11.8% | inhibition at 10 µM (SK-OV-3): < 0% | inhibition at 10 µM (TK-10): < 0% | inhibition at 10 µM (NCI-H460): 7.21% | inhibition at 10 µM (SNB-75): < 0% | inhibition at 10 µM (COLO 205): < 0% | inhibition at 10 µM (HOP-62): < 0% | inhibition at 10 µM (EKVX): 16.8% | inhibition at 10 µM (SF-295): 4.52% | inhibition at 10 µM (U251): 7.59% | inhibition at 10 µM (HOP-92): < 0% | inhibition at 10 µM (A549/ATCC): 15.9% | inhibition at 10 µM (DU-145): 14.7% | inhibition at 10 µM (OVCAR-8): 11.3% | inhibition at 10 µM (SN12C): 19.8% | inhibition at 10 µM (MALME-3M): 1.51%

C=CCSc1nc(-c2ccc(Cl)cc2)cc(-c2ccc(OC)cc2)n1 [Compound 13, 2-(Allylthio)-4-(4-chlorophenyl)-6-(4-methoxyphenyl)pyrimidine]
inhibition at 10 µM (MCF7): < 0% | inhibition at 10 µM (PC-3): 1.15% | inhibition at 10 µM (HCC-2998): < 0% | inhibition at 10 µM (KM12): 0.8% | inhibition at 10 µM (MDA-MB-435): 5.34% | inhibition at 10 µM (786-0): 3.01% | inhibition at 10 µM (SR): 19.9% | inhibition at 10 µM (HT29): 17.2% | inhibition at 10 µM (A498): < 0% | inhibition at 10 µM (SW-620): < 0% | inhibition at 10 µM (RXF 393): 0.35% | inhibition at 10 µM (SK-MEL-2): 4.96% | inhibition at 10 µM (MDA-MB-468): 16.2% | inhibition at 10 µM (IGROV1): < 0% | inhibition at 10 µM (HCT-116): 5.47% | inhibition at 10 µM (SF-268): < 0% | inhibition at 10 µM (OVCAR-5): < 0% | inhibition at 10 µM (NCI-H322M): 0.59% | inhibition at 10 µM (CCRF-CEM): 3.79% | inhibition at 10 µM (HS 578T): < 0% | inhibition at 10 µM (SF-539): < 0% | inhibition at 10 µM (ACHN 1): < 0% | inhibition at 10 µM (BT-549): < 0% | inhibition at 10 µM (UACC-257): < 0% | inhibition at 10 µM (T-47D): 18.4% | inhibition at 10 µM (NCI-H23): 3.36% | inhibition at 10 µM (RPMI-8226): 4.91% | inhibition at 10 µM (M14): 4.04% | inhibition at 10 µM (K-562): 15.6% | inhibition at 10 µM (SK-MEL-28): < 0% | inhibition at 10 µM (HL-60(TB)): 26.8% | inhibition at 10 µM (SK-MEL-5): 1% | inhibition at 10 µM (OVCAR-4): 12.1% | inhibition at 10 µM (SK-OV-3): < 0% | inhibition at 10 µM (TK-10): < 0% | inhibition at 10 µM (NCI-H460): 0.1% | inhibition at 10 µM (SNB-75): < 0% | inhibition at 10 µM (COLO 205): < 0% | inhibition at 10 µM (HOP-62): < 0% | inhibition at 10 µM (EKVX): 2.11% | inhibition at 10 µM (SF-295): 1.47% | inhibition at 10 µM (U251): < 0% | inhibition at 10 µM (HOP-92): < 0% | inhibition at 10 µM (A549/ATCC): < 0% | inhibition at 10 µM (DU-145): 1.02% | inhibition at 10 µM (OVCAR-8): < 0% | inhibition at 10 µM (SN12C): 6.62% | inhibition at 10 µM (MALME-3M): < 0%
